Reference: patent EP4729615A1, “SIRNA TARGETING MMP7, SIRNA CONJUGATE AND MEDICAL USE THEREOF” (Tuojie Biotech (Shanghai) Co., Ltd., priority 2023, dated 2024)
Strand notation (5' to 3'): a small letter for the sugar, then the base; units joined by * are phosphorothioate-linked, units joined directly phosphodiester-linked; [ ] holds rarer units or linkages, { } end groups; capitals alone tell only the bases. {I-14} = ligand I-14 conjugated at sense 5' end; m = 2'-O-methyl; f = 2'-fluoro

What was measured:
[1] = biological target: human recombinant αvβ6 protein (Homo sapiens, UniProt P06756+P18564); experiment: fluorescence polarization (FP) binding assay with fluorescent RGD peptide; details: 12 concentration points, highest 10 µM, 3-fold serial dilution
human recombinant αvβ6 protein, sequence (P06756 31-992 limits assumed): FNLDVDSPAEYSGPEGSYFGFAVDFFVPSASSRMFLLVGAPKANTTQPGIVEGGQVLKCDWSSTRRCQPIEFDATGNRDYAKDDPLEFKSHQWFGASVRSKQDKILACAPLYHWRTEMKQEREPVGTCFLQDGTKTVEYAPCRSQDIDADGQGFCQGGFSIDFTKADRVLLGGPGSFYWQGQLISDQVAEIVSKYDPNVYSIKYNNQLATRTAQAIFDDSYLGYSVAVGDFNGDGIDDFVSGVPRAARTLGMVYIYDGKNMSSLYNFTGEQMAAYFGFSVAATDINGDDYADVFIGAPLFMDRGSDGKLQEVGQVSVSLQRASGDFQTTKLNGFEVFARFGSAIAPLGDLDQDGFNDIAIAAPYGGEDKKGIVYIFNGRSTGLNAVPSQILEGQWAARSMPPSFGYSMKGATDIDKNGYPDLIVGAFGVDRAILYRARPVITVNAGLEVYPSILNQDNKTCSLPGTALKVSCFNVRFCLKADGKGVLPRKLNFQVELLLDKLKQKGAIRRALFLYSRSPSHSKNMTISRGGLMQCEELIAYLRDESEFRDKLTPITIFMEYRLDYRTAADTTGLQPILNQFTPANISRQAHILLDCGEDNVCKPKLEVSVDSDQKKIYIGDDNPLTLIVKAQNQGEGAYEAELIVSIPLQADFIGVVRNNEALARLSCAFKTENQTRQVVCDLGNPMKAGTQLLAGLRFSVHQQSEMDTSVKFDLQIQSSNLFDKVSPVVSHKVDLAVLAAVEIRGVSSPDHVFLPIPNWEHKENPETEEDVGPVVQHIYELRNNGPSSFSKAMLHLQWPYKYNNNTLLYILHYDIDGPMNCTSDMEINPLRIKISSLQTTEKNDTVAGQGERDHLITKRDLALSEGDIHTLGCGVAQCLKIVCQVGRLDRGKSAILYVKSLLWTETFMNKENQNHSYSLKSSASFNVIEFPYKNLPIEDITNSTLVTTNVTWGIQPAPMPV
human recombinant αvβ6 protein, sequence (P18564 22-707 limits assumed): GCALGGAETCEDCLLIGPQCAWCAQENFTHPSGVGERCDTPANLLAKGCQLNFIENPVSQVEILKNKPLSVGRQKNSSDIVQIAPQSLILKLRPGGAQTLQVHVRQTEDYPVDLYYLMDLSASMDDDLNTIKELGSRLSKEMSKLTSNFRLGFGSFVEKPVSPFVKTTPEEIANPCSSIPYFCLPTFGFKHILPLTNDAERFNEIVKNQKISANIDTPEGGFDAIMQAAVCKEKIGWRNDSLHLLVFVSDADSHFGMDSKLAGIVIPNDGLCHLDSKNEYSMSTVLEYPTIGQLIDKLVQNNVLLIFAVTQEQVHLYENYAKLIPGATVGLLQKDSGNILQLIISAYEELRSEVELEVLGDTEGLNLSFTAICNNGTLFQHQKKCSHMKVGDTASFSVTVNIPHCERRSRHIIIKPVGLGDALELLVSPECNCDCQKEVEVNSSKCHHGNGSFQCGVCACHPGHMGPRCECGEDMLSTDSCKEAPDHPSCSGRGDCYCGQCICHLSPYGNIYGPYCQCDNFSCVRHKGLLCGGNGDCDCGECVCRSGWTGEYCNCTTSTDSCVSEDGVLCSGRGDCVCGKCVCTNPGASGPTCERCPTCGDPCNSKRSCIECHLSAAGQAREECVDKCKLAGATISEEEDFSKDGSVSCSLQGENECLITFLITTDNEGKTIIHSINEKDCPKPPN
Procedure: The specific assay method is as follows: • 3.5 µL of test compound I-12 was added to a 384-well black plate. For the test compound, 12 concentration points were set up. The highest concentration was 10 µM, and 3-fold serial dilution was performed. DMSO control wells were used to determine the maximum signal, and 500 nM compound CWHM-12 (MCE, HY-18644) control wells were used as the minimum signal. Then, 3.5 µL of 4× human recombinant αvβ6 protein working solution was added. After incubation at room temperature for 15 min, 7 µL of 2× fluorescent RGD peptide solution was added to each well. The plate was incubated at room temperature for 1 h, and then FP signals were read using Envision. Using GraphPad Prism, the inhibition curve fitting was performed, and the IC50 value was calculated. The IC50 value (Z prime > 0.5) was calculated using the following formula: Y = Bottom + (Top−Bottom)/(1+10^(∧)((LogIC50−X)×HillSlope)) [formula] • X: Log inhibitor concentration; Y: inhibition rate %.

MMP7 mRNA = experiment: on-target activity of siRNA conjugates at 2 endogenous concentration points in HCC38 cells, Q-PCR (Example 10); assay type: cell-based, human; details: 24 h after transfection; for 2 nM remaining expression (%): siRNA conjugate 2 nM; for 10 nM remaining expression (%): siRNA conjugate 10 nM
Procedure: The siRNA conjugates were subjected to an in vitro molecular-level activity screening in HCC38 cells using 2 concentration gradients.
HCC38 cells were cultured at 37 °C with 5% CO2 in a 1640 culture medium containing 10% fetal bovine serum. 24 h prior to transfection, the HCC38 cells were seeded into a 96-well plate at a density of 1.5 × 10^4 cells per well, with each well containing 100 µL of the culture medium.
The cells were transfected with the siRNA conjugates using Lipofectamine RNAi Max (Invitrogen, 13778-150) according to the instructions. 0.3 µL of Lipofectamine RNAi Max was used for each well. A total of 2 concentration points were set for the siRNA conjugates, i.e., 10 nM and 2 nM, respectively. 24 h after transfection, RNA was extracted for Q-PCR to detect the activity of the siRNA conjugates. […] Table 9. Activity results of siRNA conjugates at 2 concentration points at the HCC38 cellular level

| Compound | IC50 [1] [nM] | 2 nM remaining expression (%) (MMP7 mRNA) | 10 nM remaining expression (%) (MMP7 mRNA) |
| --- | --- | --- | --- |
| [N-]=[N+]=NCCOCCOCCOCCOCCOc1ccc(-c2ccc([C@H](CC(=O)O)NC(=O)CNC(=O)CCCNc3cc4ccccc4cn3)cc2)c2ccccc12 [I-12] | 79.9 |  |  |
| TJR103312: siRNA conjugate containing I-14; SS SEQ ID NO 28 (I-14UmsGmsGmGmUmAmGfAfUfGmUmCmAmAmUmAmAmAmUm), AS SEQ ID NO 58 (sense {I-14}-mU*mG*mGmGmUmAfGfAfUmGmUmCmAmAmUmAmAmAmU; antisense AUUUAUUGACAUCUACCCACU; antisense: chemistry not given here) |  | 11.35 | 8.20 |
| TJR103313: siRNA conjugate containing I-14; SS SEQ ID NO 29 (I-14UmsGmsAmCmUmCmAfGfAfAmAmCmAmAmAmAmAmAmUm), AS SEQ ID NO 59 (sense {I-14}-mU*mG*mAmCmUmCfAfGfAmAmAmCmAmAmAmAmAmAmU; antisense AUUUUUUGUUUCUGAGUCAUA; antisense: chemistry not given here) |  | 8.05 | 4.23 |
| TJR103314: siRNA conjugate containing I-14; SS SEQ ID NO 30 (I-14AmsUmsUmCmAmAmGfAfAfAmGmAmAmAmUmAmGmAmAm), AS SEQ ID NO 60 (sense {I-14}-mA*mU*mUmCmAmAfGfAfAmAmGmAmAmAmUmAmGmAmA; antisense UUCUAUUUCUUUCUUGAAUUA; antisense: chemistry not given here) |  | 14.73 | 8.03 |
